Here are results for one compound from patent publication US9650616B2, “Methods for increasing grain yield” (University of Florida Research Foundation, Inc., priority 2014, dated 2017).

SMILES strings stand for the structures. Where a chain is given by its changes, count along the chain named.

One may read the Km as the substrate concentration at which the rate is half of its maximum.

The target of assay [1] is T1, maize endosperm AGPase, large subunit variant RG (Q96R, D161G; numbering of SEQ ID NO: 20) (Zea mays, UniProt P55241+Q84PF5, D161G/Q96R).
T1 sequence (P55241 46-516 D161G/Q96R): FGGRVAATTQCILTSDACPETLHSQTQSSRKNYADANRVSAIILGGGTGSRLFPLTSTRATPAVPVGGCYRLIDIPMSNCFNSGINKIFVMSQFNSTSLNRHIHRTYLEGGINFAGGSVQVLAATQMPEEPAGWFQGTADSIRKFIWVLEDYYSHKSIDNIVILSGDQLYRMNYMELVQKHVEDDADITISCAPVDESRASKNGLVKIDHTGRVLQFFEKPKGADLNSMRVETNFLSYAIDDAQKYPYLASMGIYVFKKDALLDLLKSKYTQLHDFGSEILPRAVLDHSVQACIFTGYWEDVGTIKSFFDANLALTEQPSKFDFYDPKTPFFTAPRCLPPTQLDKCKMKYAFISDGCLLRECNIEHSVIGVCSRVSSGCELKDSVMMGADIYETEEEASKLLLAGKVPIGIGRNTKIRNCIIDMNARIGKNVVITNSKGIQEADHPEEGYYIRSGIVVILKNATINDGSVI
T1 sequence (Q84PF5 1-474): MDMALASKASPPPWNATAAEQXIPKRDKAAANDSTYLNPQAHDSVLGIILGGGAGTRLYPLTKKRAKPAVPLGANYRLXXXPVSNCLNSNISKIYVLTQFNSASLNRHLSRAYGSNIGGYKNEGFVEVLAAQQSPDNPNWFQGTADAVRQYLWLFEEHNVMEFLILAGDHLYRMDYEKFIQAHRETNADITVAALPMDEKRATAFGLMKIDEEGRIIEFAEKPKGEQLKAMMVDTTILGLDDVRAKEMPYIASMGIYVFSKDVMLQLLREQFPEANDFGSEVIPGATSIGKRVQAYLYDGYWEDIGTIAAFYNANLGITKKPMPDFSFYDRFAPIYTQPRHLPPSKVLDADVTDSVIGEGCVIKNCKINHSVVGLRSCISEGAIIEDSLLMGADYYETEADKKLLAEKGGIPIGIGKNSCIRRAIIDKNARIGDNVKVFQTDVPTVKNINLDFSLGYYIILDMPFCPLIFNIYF
In words: Apparent kinetic constants with 3-PGA, 37° C., RG. The class given is biochemical. Particulars: read-out: ATP Km. From the text:
(§1) The small and large subunit plasmids of maize endosperm AGPase (pMONcBt2 and pMONcSh2, respectively) (Giroux et al., 1996) were expressed in E. coli AC70R1-504 cells (Iglesias et al., 1993) as previously described (Boehlein et al., 2008).
(§2) An endpoint assay was used to determine the rate of the AGPase reaction by coupling the formation of PPi to a decrease in NADH concentration (Boehlein et al., 2008). […] The Michaelis constants (Km) were obtained by varying one substrate in the presence of saturating concentrations of the second substrate. The activation constants were obtained by varying the activator at fixed levels of both substrates. All reactions were performed at 37° C. and mixes were prewarmed before starting the reaction with enzyme. […] The absorbance at 340 nm was monitored after 30 min and the amount of PPi produced was determined from a standard curve using PPi in complete reaction mixtures lacking AGPase. Blank samples contained complete reaction mixtures without enzyme and the change in absorbance between the blank and the reaction was used to calculate the amount of PPi produced. […]
(§3) The apparent Michaelis constant and maximum velocity of each reaction was calculated from a V vs. S plots using nonlinear regression analysis and the following equation, v=VmaxS/(Km+S), where v is the measured velocity, Vmax is the maximum velocity, S is the substrate concentration. […]

The target in assay [2] is T2, maize endosperm AGPase, large subunit variant RGRR (Q96R, D161G, A443R, S444R; numbering of SEQ ID NO: 20) (Zea mays, UniProt P55241+Q84PF5, A443R/D161G/Q96R/S444R).
T2 sequence (P55241 46-516 A443R/D161G/Q96R/S444R): T1 sequence (P55241 46-516 D161G/Q96R) with A398R, S399R
T2 sequence (Q84PF5 1-474): T1 sequence (Q84PF5 1-474)
In words: Apparent kinetic constants with 3-PGA, 37° C., RGRR. It is filed as biochemical. The note with it: read-out: ATP Km.
Source text: as §1, §2, §3

As for `Nc1ncnc2c1ncn2[C@@H]1O[C@H](COP(=O)(O)OP(=O)(O)OP(=O)(O)O)[C@@H](O)[C@H]1O` [ATP], the Km in assay [1] is 63 µM; in assay [2], 38 µM.
